From patent US9440952B2, “Compounds inhibiting leucine-rich repeat kinase enzyme activity” (Merck Sharp & Dohme Corp., priority 2013, dated 2016)

biological target: T1, LRRK2(G2019S mutation, GST-LRRK2(amino acids 970-2527)) (Homo sapiens, UniProt Q5S007, G2019S); experiment: LRRK2 Km ATP LanthaScreen Assay; format: biochemical; conditions: Km ATP LanthaScreen Assay; LRRK2 G2019S; mean IC50 values; Examples 185-215; read-out: LRRK2 IC5)
T1 construct: GST-LRRK2(amino acids 970-2527); GST (N); purchased Life Technologies Corporation
T1 sequence (Q5S007 970-2527 G2019S): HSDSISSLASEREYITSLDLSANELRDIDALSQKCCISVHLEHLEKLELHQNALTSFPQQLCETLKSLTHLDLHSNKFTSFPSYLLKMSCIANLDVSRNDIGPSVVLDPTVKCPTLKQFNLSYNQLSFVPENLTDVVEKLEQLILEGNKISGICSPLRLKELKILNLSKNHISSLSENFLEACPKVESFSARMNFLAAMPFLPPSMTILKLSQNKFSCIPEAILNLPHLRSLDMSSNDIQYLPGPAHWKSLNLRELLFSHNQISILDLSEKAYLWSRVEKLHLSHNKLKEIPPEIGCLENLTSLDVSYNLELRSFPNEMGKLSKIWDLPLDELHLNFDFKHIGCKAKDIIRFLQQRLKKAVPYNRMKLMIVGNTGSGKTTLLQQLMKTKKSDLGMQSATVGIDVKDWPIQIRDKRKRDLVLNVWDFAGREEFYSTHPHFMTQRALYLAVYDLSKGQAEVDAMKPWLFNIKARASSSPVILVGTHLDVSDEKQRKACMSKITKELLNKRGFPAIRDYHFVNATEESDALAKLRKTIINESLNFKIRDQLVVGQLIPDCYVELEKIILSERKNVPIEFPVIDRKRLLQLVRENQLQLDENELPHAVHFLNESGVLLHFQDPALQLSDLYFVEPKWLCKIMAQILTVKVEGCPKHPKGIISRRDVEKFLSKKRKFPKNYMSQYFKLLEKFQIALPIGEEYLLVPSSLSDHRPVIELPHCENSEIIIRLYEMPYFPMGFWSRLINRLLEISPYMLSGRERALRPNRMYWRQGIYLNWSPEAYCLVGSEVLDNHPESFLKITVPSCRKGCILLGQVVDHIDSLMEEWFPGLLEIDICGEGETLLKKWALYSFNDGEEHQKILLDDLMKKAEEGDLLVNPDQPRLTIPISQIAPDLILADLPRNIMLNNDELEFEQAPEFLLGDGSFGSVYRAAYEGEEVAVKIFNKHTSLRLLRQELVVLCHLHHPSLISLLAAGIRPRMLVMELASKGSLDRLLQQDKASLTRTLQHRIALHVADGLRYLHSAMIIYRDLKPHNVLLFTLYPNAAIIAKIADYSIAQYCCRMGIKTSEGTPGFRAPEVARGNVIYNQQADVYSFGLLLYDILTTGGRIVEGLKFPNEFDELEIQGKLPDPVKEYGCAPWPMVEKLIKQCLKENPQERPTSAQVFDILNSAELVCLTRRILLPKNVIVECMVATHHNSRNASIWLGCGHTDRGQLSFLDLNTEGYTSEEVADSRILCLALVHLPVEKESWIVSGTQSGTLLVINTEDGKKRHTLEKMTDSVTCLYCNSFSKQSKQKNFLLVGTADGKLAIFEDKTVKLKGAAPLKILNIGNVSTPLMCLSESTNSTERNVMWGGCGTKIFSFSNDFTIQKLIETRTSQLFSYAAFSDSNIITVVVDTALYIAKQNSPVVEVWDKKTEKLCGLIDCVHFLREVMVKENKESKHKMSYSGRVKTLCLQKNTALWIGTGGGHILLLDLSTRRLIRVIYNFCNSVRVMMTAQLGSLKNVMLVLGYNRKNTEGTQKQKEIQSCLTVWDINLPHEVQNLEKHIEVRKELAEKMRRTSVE
Method: Unless otherwise noted, all LRRK2 IC50 data presented in tables refers to the LRRK2 Km ATP LanthaScreen™ Assay that is described in the Biological Assay section.
The data presented for the 5 mM and Km ATP LanthaScreen™ Assay represents mean IC50 values based on several test results and may have reasonable. deviations depending on the specific conditions and reagents used. Reagents for the LRRK2 5 mM and Km ATP LanthaScreen™ Assay were purchased from Life Technologies Corporation.
Results are analysed using Assay Data Analyzer.

SMILES	IC50
Cc1nnc(CN(C)c2cc(-c3n[nH]c4ccc(OC(C)C)cc34)ccn2)o1 [Example 192]	25.3 nM
CC(C)Oc1ccc2[nH]nc(-c3ccnc(N4CC[S+]([O-])CC4)c3)c2c1 [Example 191]	7.4 nM
CC(C)Oc1ccc2[nH]nc(-c3ccnc(N4CCN(c5ncc6ccccc6n5)CC4)c3)c2c1 [Example 212]	70.6 nM
Cc1ncc(N2CCN(c3cc(-c4n[nH]c5ccc(OC(C)C)cc45)ccn3)CC2)s1 [Example 206]	10.5 nM
CC(C)Oc1ccc2[nH]nc(-c3ccnc(N4CCN(c5ncccn5)CC4)c3)c2c1 [Example 204]	7.9 nM
Cc1nc2c(o1)CCN(c1cc(-c3n[nH]c4ccc(OC(C)C)cc34)ccn1)C2 [Example 197]	12.8 nM
CC(C)Oc1ccc2[nH]nc(-c3ccnc(N4CCCS(=O)(=O)CC4)c3)c2c1 [Example 188]	21.4 nM
CC(C)Oc1ccc2[nH]nc(-c3ccnc(N4CC(n5cccn5)C4)c3)c2c1 [Example 190]	13.2 nM
CC(C)Oc1ccc2[nH]nc(-c3ccnc(N4CCN(c5cnccn5)CC4)c3)c2c1 [Example 202]	6.4 nM

same assay, conditions: Km ATP LanthaScreen Assay; LRRK2 G2019S; mean IC50 values; read-out: LRRK2 IC50

SMILES	IC50
CN(C)CCC(Nc1cc(-c2n[nH]c3ccccc23)ccn1)c1ccccn1 (stereo not drawn) [Example 45]	72 nM
COc1ccc(C2CC2C(=O)Nc2cc(-c3n[nH]c4ccc(OC(C)C)cc34)ccn2)cc1 (stereo not drawn) [Example 159]	782 nM
FC1CCN(CCCNc2cc(-c3n[nH]c4ccccc34)ccn2)C1 (stereo not drawn) [Example 62]	46 nM
CC(C)Oc1ccc2[nH]nc(-c3ccnc(NC(=O)C4CCN(c5ccccn5)C4)c3)c2c1 (stereo not drawn) [Example 167]	78 nM
CC(C)Oc1ccc2[nH]nc(-c3ccnc(NC(=O)C4CC(F)(F)C4)c3)c2c1 [Example 166]	73.5 nM
OCCOCCNc1cc(-c2n[nH]c3ccccc23)ccn1 [Example 58]	51 nM
C[C@@H]1C[C@@H](O)CN1c1cc(-c2n[nH]c3ccccc23)ccn1 [Example 51]	33 nM
COC1CCN(c2cc(-c3n[nH]c4ccc(-c5ccnc(O)c5)cc34)ccn2)CC1 [Example 122]	1.1 nM
CN(C)CC1CN(c2cc(-c3n[nH]c4ccccc34)ccn2)CCO1 (stereo not drawn) [Example 43]	19 nM
CN1CCC(Nc2cc(-c3n[nH]c4ccccc34)ccn2)C1=O (stereo not drawn) [Example 68]	108 nM
COC1(C)CN(c2cc(-c3n[nH]c4ccc(OC(F)(F)F)cc34)ccn2)C1 [Example 253]	201 nM
COc1cnccc1-c1ccc2[nH]nc(-c3ccnc(N4CCOCC4)c3)c2c1 [Example 102]	0.2 nM
CC1CN(c2cc(-c3n[nH]c4ccccc34)ccn2)CC(C)O1 (stereo not drawn) [Example 31]	12 nM
c1ccc2c(-c3ccnc(N4CCCC4)c3)n[nH]c2c1 [Example 5]	17 nM
c1ccc2c(-c3ccnc(NCCN4CCOCC4)c3)n[nH]c2c1 [Example 73]	35 nM
c1ccc2c(-c3ccnc(N4CCSCC4)c3)n[nH]c2c1 [Example 12]	46 nM
c1ccc2c(-c3ccnc(N4CC5CCC(C4)O5)c3)n[nH]c2c1 [Example 402]	27 nM
COCCNc1cc(-c2n[nH]c3ccccc23)ccn1 [Example 4]	46 nM
CC(C)Oc1ccc2[nH]nc(-c3ccnc(NC(=O)C4CCCC4)c3)c2c1 [Example 156]	53.1 nM
CS(=O)(=O)N1CCN(c2cc(-c3n[nH]c4ccccc34)ccn2)CC1 [Example 18]	17 nM
c1ccc2c(-c3ccnc(NC4COC4)c3)n[nH]c2c1 [Example 33]	3510 nM
COCCN(C)c1cc(-c2n[nH]c3ccc(OC(C)C)cc23)ccn1 [Example 136]	4.9 nM
CC(C)Oc1ccc2[nH]nc(-c3ccnc(N4C5CCC4COC5)c3)c2c1 [Example 282]	7.7 nM
FC1(F)CCN(c2cc(-c3n[nH]c4ccc(OC(F)(F)F)cc34)ccn2)CC1 [Example 243]	1060 nM
FC(F)(F)Oc1ccc2[nH]nc(-c3ccnc(N4CCCCC4)c3)c2c1 [Example 232]	279 nM
CCNc1cc(-c2n[nH]c3ccc(Nc4cccc(S(C)(=O)=O)c4)cc23)ccn1 [Example 111]	35 nM
Cc1cc(CC(=O)Nc2cc(-c3n[nH]c4ccc(OC(C)C)cc34)ccn2)on1 [Example 155]	13.4 nM
CC(C)Oc1ccc2[nH]nc(-c3ccnc(NCC4CCCO4)c3)c2c1 (stereo not drawn) [Example 135]	3.2 nM

same assay, conditions: Km ATP LanthaScreen; mean IC50 of several tests; read-out: LRRK2 IC50

SMILES	IC50
Cc1cc2[nH]nc(-c3ccnc(N4CCOCC4)c3)c2cc1OC(C)C [Example 397]	167 nM
OCCOc1ccc2[nH]nc(-c3ccnc(N4CCOCC4)c3)c2c1 [Example 363]	9.3 nM
Cc1ncc(-c2cc3c(-c4ccnc(N5CC(F)C5)c4)n[nH]c3cc2F)n1C [Example 310]	95 nM
O=C1CCN(c2cc(-c3n[nH]c4ccccc34)ccn2)CC1 [Example 76]	45 nM
COc1ccncc1-c1cc2c(-c3ccnc(N4CCOCC4)c3)n[nH]c2cc1F [Example 323]	< 0.6 nM
c1cc(-c2n[nH]c3ccc(-c4cnco4)cc23)cc(N2CCOCC2)n1 [Example 322]	0.66 nM
CC(C)Oc1ccc2[nH]nc(-c3ccnc(N4CCN(S(C)(=O)=O)C(C)C4)c3)c2c1 (stereo not drawn) [Example 385]	2.2 nM
c1cc(-c2ccc3[nH]nc(-c4ccnc(N5CCOCC5)c4)c3c2)[nH]n1 [Example 346]	< 0.6 nM
Cn1cc(-c2ccc3[nH]nc(-c4ccnc(N5CC(F)(F)C5)c4)c3c2)cn1 [Example 274]	4.2 nM
Cn1cc(-c2ccc3[nH]nc(-c4ccnc(N5CC[C@H](F)C5)c4)c3c2)cn1 [Example 278]	1.9 nM
CCOc1ccc2[nH]nc(-c3ccnc(N[C@H](C)CO)c3)c2c1 [Example 357]	5.5 nM
CC(C)Oc1ccc2[nH]nc(-c3ccnc(NS(=O)(=O)c4ccc5c(c4)N(C)C(=O)CO5)c3)c2c1 [Example 262]	43.4 nM
c1cc(-c2n[nH]c3cc4c(cc23)OCCO4)cc(N2CCOCC2)n1 [Example 394]	12 nM
CCOc1ccc2[nH]nc(-c3ccnc(NCCOC)c3)c2c1 [Example 354]	6.2 nM
COc1ccc(-c2ccc3[nH]nc(-c4ccnc(N5CCOCC5)c4)c3c2)c(OC)n1 [Example 328]	189 nM
c1cc(-c2n[nH]c3ccc(-c4ncco4)cc23)cc(N2CCOCC2)n1 [Example 325]	6.9 nM
Cn1cnc(-c2ccc3[nH]nc(-c4ccnc(N5CCOCC5)c4)c3c2)c1 [Example 343]	4.9 nM
OCCc1ccc2[nH]nc(-c3ccnc(N4CCOCC4)c3)c2c1 [Example 333]	30 nM
CCOc1ccc2[nH]nc(-c3ccnc(N[C@@H](C)CO)c3)c2c1 [Example 358]	16 nM
COCCNc1cc(-c2n[nH]c3ccc(OC(C)C)cc23)ccn1 [Example 292]	5.9 nM
CC(C)Oc1ccc2[nH]nc(-c3ccnc(NS(=O)(=O)c4ccc(C5(C#N)CC5)cc4)c3)c2c1 [Example 263]	60.8 nM
Cn1cnnc1-c1ccc2[nH]nc(-c3ccnc(N4CC(F)C4)c3)c2c1 [Example 309]	1.8 nM
c1cc(-c2n[nH]c3ccc(-c4cncs4)cc23)cc(N2CCOCC2)n1 [Example 327]	< 0.6 nM
CC(C)Oc1ccc2[nH]nc(-c3ccnc(NS(=O)(=O)Cc4ccccn4)c3)c2c1 [Example 261]	124 nM
CCOc1ccc2[nH]nc(-c3ccnc(N4CC(OC)C4)c3)c2c1 [Example 359]	15 nM
CCC(C)Oc1ccc2[nH]nc(-c3ccnc(N4CCOCC4)c3)c2c1 (stereo not drawn) [Example 291]	2.2 nM
